According to publication PMC9788509, “Arginine Homopeptide of 11 Residues as a Model of Cell-Penetrating Peptides in the Interaction with Bacterial Membranes” (Membranes, 2022):
Values joined by “and” are separate entries in the source; they are usually repeats but may differ in a detail not shown here. Identical values can stand only once. No end group written: not given here.

Tests used:
Escherichia coli (ML35) = format: cell-based; details: E. coli ML35; 1 × 10^7 CFU/mL; 1% TSB, 10 mM Hepes; 10, 20 and 30 μM peptide, 1 h at 37 °C; serial dilution, 18 h at 37 °C in complete TSB; turbidity; duplicate
Method: (§1) The strains used, Staphylococcus aureus (ATCC 25923) and Escherichia coli (ML35), were obtained from the Public Health Institute of Chile (ISP).
(§2) To determine the antibacterial activity of the peptides, a microplate dilution test was performed. The necessary calculations were completed with a bacterial concentration of 1 × 10^7 CFU/mL and the cells were exposed to 50 µL of Tryptic soy broth (TSB) with 1%, 10 mM of Hepes buffer and 10, 20 and 30 μM of peptide for 1 h at 37 °C. Finally, a serial dilution was performed and incubated for 18 h at 37 °C in complete TSB, and the minimum bactericidal concentration (MCB) was determined depending on the turbidity of the plate. All experiments were completed in duplicate. A synthetic peptide of sequence KKWRWWLKALAKK from the venom of the Bothrops asper snake was used as a positive control for growth inhibition.

[1] = tested on: Staphylococcus aureus (ATCC 25923); format: cell-based; details: S. aureus ATCC 25923; 1 × 10^7 CFU/mL; 1% TSB, 10 mM Hepes; 10, 20 and 30 μM peptide, 1 h at 37 °C; serial dilution, 18 h at 37 °C in complete TSB; turbidity; duplicate
Method: as §1, §2

S. aureus = assay: Membrane permeabilization by SYTOX green assay; format: cell-based, Staphylococcus aureus; details: S. aureus 1 × 10^6 CFU/mL in PBS 1X; 90 µL bacteria, 5 µL peptide at 200 µM, 5 µL SYTOX Green at 100 µM; 30 cycles of one minute at 30 °C; triplicate
Method: (§3) To verify the effect of peptides on cell membrane integrity, a SYTOX green uptake assay was used, as previously described. Briefly, E coli and S. aureus cultures in exponential phase of growth were centrifuged at 2000× g for 5 min and washed with PBS 1X to prepare a solution at a concentration of 1 × 10^6 CFU/mL in PBS 1X. Then, in 100 μL qPCR tubes, 90 µL of the bacterial solution, 5 µL of peptide at 200 µM and 5 µL of SYTOX Green dye at 100 µM were added. The q-PCR tubes were placed in an Applied Biosystems StepOnePlus™ Real-Time PCR Systems thermocycler, programmed with 30 cycles for one minute at 30 °C, using the Syber green filter, recording the fluorescence data at the end of each cycle. Each assay was performed in triplicate.

E coli = assay: Membrane permeabilization by SYTOX green assay; format: cell-based, Escherichia coli; details: E. coli 1 × 10^6 CFU/mL in PBS 1X; 90 µL bacteria, 5 µL peptide at 200 µM, 5 µL SYTOX Green at 100 µM; 30 cycles of one minute at 30 °C; triplicate
Method: as §3

[2] = tested on: blood samples obtained from a healthy individual; format: cell-based
Method: The hemolytic activity of the peptides was obtained, according to a previously described procedure. Briefly, blood samples obtained from a healthy individual were centrifuged at 2000 g for 10 min at 4 °C and then washed with PBS 1X three times. The supernatant was diluted with PBS 1X until reaching a concentration of 6 × 10^8 cells/mL. Assays were performed in duplicate with the peptides at concentrations of 5 and 50 µM, including AMP from Bothrops asper. Triton X-100 (Sigma Aldrich) at 0.5% was used as positive control and PBS 1X as negative control. The assay is performed by mixing 65 µL of the cell suspension with 65 µL of each peptide at the indicated concentrations, and 65 µL of each control, incubating at 37 °C for 1 h. The samples are centrifuged at 3000 g for 5 min; 80 µL of supernatant is taken and placed in a 96-well plate together with 80 µL of milliQ water to finally measure its absorbance at 540 nm.
Hemolysis is calculated according to Equation (1). (1) %Hemolysis=[…]

| Compound | Minimum Bactericidal Concentration (Escherichia coli (ML35)) [µM] | Minimum Bactericidal Concentration [1] [µM] | Percentage of polyproline II, Equation (2) | SYTOX green fluorescence (membrane permeabilization) (S. aureus) | SYTOX green fluorescence (membrane permeabilization) (E coli) | Hemolytic activity [2] |
| --- | --- | --- | --- | --- | --- | --- |
| C[C@H](NC(=O)[C@H](CCCNC(=N)N)NC(=O)[C@H](CCCNC(=N)N)NC(=O)[C@H](CCCNC(=N)N)NC(=O)[C@H](CCCNC(=N)N)NC(=O)[C@H](CCCNC(=N)N)NC(=O)[C@H](CCCNC(=N)N)NC(=O)[C@H](CCCNC(=N)N)NC(=O)[C@H](CCCNC(=N)N)NC(=O)[C@H](CCCNC(=N)N)NC(=O)[C@@H](N)CCCNC(=N)N)C(N)=O [A11] | 20 | 8 | 49% (2×) and 45% and 50% | – | – | – |
| N=C(N)NCCC[C@H](NC(=O)[C@H](CCCNC(=N)N)NC(=O)[C@H](CCCNC(=N)N)NC(=O)[C@H](CCCNC(=N)N)NC(=O)[C@H](CCCNC(=N)N)NC(=O)[C@H](CCCNC(=N)N)NC(=O)[C@H](CCCNC(=N)N)NC(=O)[C@H](CCCNC(=N)N)NC(=O)[C@H](CCCNC(=N)N)NC(=O)[C@@H](N)CCCNC(=N)N)C(=O)N[C@@H](Cc1c[nH]c2ccccc12)C(N)=O [W11] | 20 | 10 | – | – | – | – |
| KKWRWWLKALAKK | – | – | – | high fluorescence | high fluorescence | – |
| RLRRRRRRRRR-NH2 [L2] | 8 | 12 | – | – | – | – |
| RRLRRRRRRRR-NH2 [L3] | 10 | 9 | – | – | – | – |
| RRPRRRRRRRR-NH2 [P3] | 28 | 8 | – | – | – | – |
| RRRARRRRRRR-NH2 [A4] | 26 | – | 46% (2×) and 58% and 51% | – | – | – |
| RRRLRRRRRRR-NH2 [L4] | 20 | 9 | – | – | – | – |
| RRRPRRRRRRR-NH2 [P4] | >30 | – | 49% (2×) and 29% and 41% | – | – | – |
| RRRRLRRRRRR-NH2 [L5] | 18 | 8 | – | – | – | – |
| RRRRPRRRRRR-NH2 [P5] | 28 | 8 | – | – | – | – |
| RRRRRLRRRRR-NH2 [L6] | >30 | 28 | – | – | – | – |
| RRRRRRPRRRR-NH2 [P7] | 10 | 7 | – | – | – | – |
| RRRRRRRLRRR-NH2 [L8] | 18 | – | 51% and 65% (2×) and 62% | – | – | – |
| RRRRRRRPRRR-NH2 [P8] | 30 | 9 | 49% (2×) and 40% and 50% | – | – | – |
| RRRRRRRRPRR-NH2 [P9] | 20 | 10 | 41% (2×) and 27% and 43% | – | – | – |
| RRRRRRRRRAR-NH2 [A10] | 10 | 6 | – | – | – | – |
| RRRRRRRRRPR-NH2 [P10] | 30 | 30 | – | – | – | – |
| RRRRRRRRRWR-NH2 [W10] | 20 | – | 46% and 68% and 49% (2×) | – | – | – |
| RRRRRRRRWRR-NH2 [W9] | 20 | 10 | – | – | – | – |
| RRRRRRRWRRR-NH2 [W8] | 20 | 20 | – | – | – | – |
| RRRRRRWRRRR-NH2 [W7] | 14 | 8 | – | – | – | – |
| RRRRRWRRRRR-NH2 [W6] | 15 | 20 | – | – | – | – |
| RRRRWRRRRRR-NH2 [W5] | 20 | 10 | – | – | – | – |
| RRRWRRRRRRR-NH2 [W4] | 20 | 20 | – | – | – | – |
| RRWRRRRRRRR-NH2 [W3] | >30 | 20 | – | – | – | – |
| RWRRRRRRRRR-NH2 [W2] | >30 | 30 | 56% (2×) and 64% and 47% | – | – | – |
| triton X-100 | – | – | – | – | – | hemolysis was only observed |
